Laboratory results reported in patent US11639350B2, “Heteroaryldihydropyrimidine derivatives and methods of treating hepatitis B infections” (Janssen Pharmaceutica NV, priority 2018, dated 2023).

Columns and labels:
HBV = HBV inhibitory activity: HBV DNA in the culture medium of HepG2.2.15 cells by q-PCR; format: cell-based; conditions: Hepatitis B virus, HepG2.2.15, 144 h, HepG2.2.15 cells, 6 days of compound treatment, HBV DNA in culture medium by q-PCR, highest concentration 10 μM; read-out: EC50
Outline: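 Supernatant HBV DNA quantified by q-PCR after a 6-day compound exposure, with one mid-course medium change, of HepG2.2.15 cells (stably integrated HBV; 40,000 per well, 2% FBS). Eight-point 3-fold series topped at 10 μM for antiviral EC50; separate plates of 5,000 cells per well with 100 μM top give CC50.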

[1] = Cytotoxicity determination in HepG2.2.15 cells (CCK-8); format: cell-based; conditions: human, 6 days of compound treatment, CCK-8, highest concentration 100 μM
Outline: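 CC50 is from CCK-8 absorbance (450 nm, 630 nm reference) after 2.5 h with reagent. Before that, compounds were applied for six days, top concentration 100 μM, eight threefold dilutions, one mid-course medium change, to stably HBV-integrated HepG2.2.15 cells plated at 5,000/well in 2% FBS.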

| Compound | EC50 (HBV) [nM] | CC50 at 6 days [1] [nM] |
| --- | --- | --- |
| COC(=O)C1=C(C2CCN(S(C)(=O)=O)CC2)NC(c2nccs2)=NC1c1ccc(Cl)c(F)c1 (single isomer, unassigned) [Compound 124B, 4-(4-Chloro-3-fluoro-phenyl)-6-(1-methanesulfonyl-piperidin-4-yl)-2-thiazol-2-yl-1,4-dihydro-pyrimidine-5-carboxylic Acid Methyl Ester] | 85 | 6600 |
| COC(=O)C1=C([C@H]2CC[C@H](NS(C)(=O)=O)CC2)NC(c2nccs2)=NC1c1ccc(F)cc1Cl (single isomer, unassigned) [Compound 126B, Methyl 4-(2-chloro-4-fluorophenyl)-6-(trans-4-(methyl-sulfonamido)cyclohexyl)-2-(thiazol-2-yl)-1,4-dihydropyrimidine-5-carboxylate] | 343 | 31800 |
| COC(=O)C1=C([C@H]2CC[C@@H](NS(C)(=O)=O)CC2)NC(c2nccs2)=NC1c1ccc(F)cc1Cl (single isomer, unassigned) [Compound 128D, Methyl 4-(2-chloro-4-fluorophenyl)-6-(cis-4-(methylsulfonamido)-cyclohexyl)-2-(thiazol-2-yl)-1,4-dihydropyrimidine-5-carboxylate] | 17 | 22800 |
| COC(=O)C1=C(C2CN(S(=O)(=O)c3ccccc3)C2)NC(c2nccs2)=NC1c1ccc(F)cc1Cl (single isomer, unassigned) [Compound 130A, 6-(1-Benzenesulfonyl-azetidin-3-yl)-4-(2-chloro-4-fluoro-phenyl)-2-thiazol-2-yl-1,4-dihydro-pyrimidine-5-carboxylic acid methyl ester] | 317 | > 10000 |
| CCOC(=O)C1=C([C@H]2CC[C@H](C(=O)NC)CC2)NC(c2nccs2)=NC1c1ccc(F)cc1Cl (single isomer, unassigned) [Compound 132A, trans-Ethyl 4-(2-chloro-4-fluorophenyl)-6-(4-(methylcarbamoyl)-cyclohexyl)-2-(thiazol-2-yl)-1,4-dihydropyrimidine-5-carboxylate] | 472 | 23900 |
| COC(=O)C1=C(C2CCN(S(=O)(=O)C(F)F)CC2)NC(c2nccs2)=NC1c1ccc(F)c(F)c1Cl (single isomer, unassigned) [Compound 166A, Methyl 4-(2-chloro-3,4-difluorophenyl)-6-(1-((difluoromethyl)sulfonyl)piperidin-4-yl)-2-(thiazol-2-yl)-1,4-dihydropyrimidine-5-carboxylate] | 61 | > 50000 |
| CNS(=O)(=O)[C@H]1CC[C@H](C2=C(C(=O)OC)C(c3ccc(F)c(F)c3Cl)N=C(c3c(F)cc(F)cc3F)N2)CC1 (single isomer, unassigned) [Compound 167A, methyl 4-(2-chloro-3,4-difluorophenyl)-6-((trans)-4-(N-methylsulfamoyl)cyclohexyl)-2-(2,4,6-trifluorophenyl)-1,4-dihydropyrimidine-5-carboxylate] | 34 | 11600 |
| CNS(=O)(=O)[C@H]1CC[C@H](C2=C(C(=O)OC)C(c3ccc(F)c(F)c3Cl)N=C(c3ncc(F)cc3F)N2)CC1 (single isomer, unassigned) [Compound 168A, methyl 4-(2-chloro-3,4-difluorophenyl)-2-(3,5-difluoropyridin-2-yl)-6-((trans)-4-(N-methylsulfamoyl)cyclohexyl)-1,4-dihydropyrimidine-5-carboxylate] | 6 | 12500 |
| COC(=O)C1=C([C@H]2CC[C@H](S(=O)(=O)N3CCCC3)CC2)NC(c2nccs2)=NC1c1ccc(F)c(F)c1Cl (single isomer, unassigned) [Compound 169A, (trans)-Methyl 4-(2-chloro-3,4-difluorophenyl)-6-(4-(pyrrolidin-1-ylsulfonyl)cyclohexyl)-2-(thiazol-2-yl)-1,4-dihydropyrimidine-5-carboxylate] | 56 | > 100000 |
| COC(=O)C1=C([C@H]2CCC[C@@H](CO)C2)NC(c2nccs2)=NC1c1ccc(F)cc1Cl (single isomer, unassigned) [Compound 173A, Methyl 4-(2-chloro-4-fluorophenyl)-6-((cis)-3-(hydroxymethyl)cyclohexyl)-2-(thiazol-2-yl)-1,4-dihydropyrimidine-5-carboxylate] | 76 | 18600 |
| COC(=O)C1=C([C@H]2CC[C@H](C(=O)OC)CC2)NC(c2ncc(F)cc2F)=NC1c1ccc(F)cc1Cl (single isomer, unassigned) [Compound 174A, Methyl 4-(2-chloro-4-fluorophenyl)-2-(3,5-difluoropyridin-2-yl)-6-((trans)-4-(methoxycarbonyl)cyclohexyl)-1,4-dihydropyrimidine-5-carboxylate] | 128 | 19400 |
| COC(=O)C1=C(C2C[C@@H]3CN(S(C)(=O)=O)C[C@@H]3C2)NC(c2nccs2)=NC1c1ccc(F)cc1Cl (single isomer, unassigned) [Compound 176A, Methyl 4-(2-chloro-4-fluorophenyl)-6-((cis)-2-(methylsulfonyl)-octahydrocyclopenta[c]pyrrol-5-yl)-2-(thiazol-2-yl)-1,4-dihydropyrimidine-5-carboxylate] | 69 | 19900 |
| COC(=O)C1=C([C@H]2CC[C@@H](N(CCO)S(C)(=O)=O)CC2)NC(c2nccs2)=NC1c1ccc(F)cc1Cl (single isomer, unassigned) [Compound 180B, (cis)-Methyl 4-(2-chloro-4-fluorophenyl)-6-(4-(N-(2-hydroxyethyl)methylsulfonamido)cyclohexyl)-2-(thiazol-2-yl)-1,4-dihydro-pyrimidine-5-carboxylate] | 24 | 22100 |
| COCCS(=O)(=O)N[C@H]1CC[C@H](C2=C(C(=O)OC)C(c3ccc(F)cc3Cl)N=C(c3nccs3)N2)CC1 (single isomer, unassigned) [Compound 182A, (trans)Methyl 4-(2-chloro-4-fluorophenyl)-6-(4-(2-methoxyethylsulfonamido)cyclohexyl)-2-(thiazol-2-yl)-1,4-dihydropyrimidine-5-carboxylate] | 93 | 33600 |
| COC(=O)C1=C(C2CCN(S(=O)(=O)CCO)CC2)NC(c2nccs2)=NC1c1ccc(F)cc1Cl (single isomer, unassigned) [Compound 185B, Methyl 4-(2-chloro-4-fluorophenyl)-6-(1-((2-hydroxyethyl)sulfonyl)piperidin-4-yl)-2-(thiazol-2-yl)-1,4-dihydropyrimidine-5-carboxylate] | 18 | 26200 |
| CCCS(=O)(=O)N[C@H]1CC[C@H](C2=C(C(=O)OC)C(c3ccc(F)cc3Cl)N=C(c3nccs3)N2)CC1 (single isomer, unassigned) [Compound 186A, (trans)-Methyl 4-(2-chloro-4-fluorophenyl)-6-(4-(propyl-sulfonamido)cyclohexyl)-2-(thiazol-2-yl)-1,4-dihydropyrimidine-5-carboxylate] | 97 | 83100 |
| COC(=O)C1=C([C@H]2C[C@H](NS(C)(=O)=O)C2)NC(c2nccs2)=NC1c1ccc(F)cc1Cl (single isomer, unassigned) [Compound 206B, (trans)-Methyl 4-(2-chloro-4-fluorophenyl)-6-(3-(methylsulfonamido)cyclobutyl)-2-(thiazol-2-yl)-1,4-dihydropyrimidine-5-carboxylate] | 108 | 26100 |
